Where a SMILES comes first, the peptide text is derived from it. [ ]: non-standard residue; d: D form. Trp(4-Cl)(βS-Me) = C[C@@H](c1c[nH]c2cccc(Cl)c12)[C@H](N)C(=O)O; Bip(4'-COOH) = N[C@@H](Cc1ccc(-c2ccc(C(=O)O)cc2)cc1)C(=O)O; 1Nal(3S-Me) = C[C@@H](c1cccc2ccccc12)[C@H](N)C(=O)O; Phe(4-COOH) = N[C@@H](Cc1ccc(C(=O)O)cc1)C(=O)O; h3Pal(5-CN) = N#Cc1cncc(CC[C@H](N)C(=O)O)c1; Pro(4R-NH2) = N[C@H]1CN[C@H](C(=O)O)C1; 1Nal = N[C@@H](Cc1cccc2ccccc12)C(=O)O; AEF = NCCOc1ccc(C[C@H](N)C(=O)O)cc1; hTyr = N[C@@H](CCc1ccc(O)cc1)C(=O)O; dDab = NCC[C@@H](N)C(=O)O; Orn = NCCC[C@H](N)C(=O)O; dNMeA = CN[C@H](C)C(=O)O; Dap = NC[C@H](N)C(=O)O; Aib = CC(C)(N)C(=O)O
Molecular target: T1, Recombinant human IL-1β (Homo sapiens, UniProt P01584)
T1 construct: purchased BioLegend 579404
T1 sequence (P01584 117-269): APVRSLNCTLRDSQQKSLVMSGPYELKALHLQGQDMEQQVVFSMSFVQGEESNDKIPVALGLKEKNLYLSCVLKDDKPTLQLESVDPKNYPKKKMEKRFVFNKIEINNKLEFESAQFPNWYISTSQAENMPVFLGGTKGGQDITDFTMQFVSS
Assay: IL-6 assay in MRC5 cells: inhibition of IL-1β induced IL-6 secretion (AlphaLISA)
Type: cell-based
Conditions: inhibition of IL-1β induced IL-6 secretion in MRC5 cells; read-out: MRC5 IC50
Procedure, shortened: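 IL-1β at 2×EC80 in seeding medium (EMEM, 0.025% BSA) preincubated 1 h at ambient temperature with compound, then 3000 MRC5 cells/well added and incubated overnight at 37 °C, 5% CO2. IL-6 in conditioned medium quantified by AlphaLISA; IC50 from 4-parameter logistic fit.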

Row | IC50 [nM] | Compound
1 | 0.0248 | CC(=O)NCCOc1ccc(C[C@@H]2NC(=O)[C@H](CCc3cncc(C#N)c3)NC(=O)[C@@H](CCN)NC(=O)CNC(=O)[C@H](Cc3c[nH]c4ccccc34)NC(=O)[C@H](Cc3ccc(-c4ccc(C(=O)O)cc4)cc3)NC(=O)CNC(=O)[C@@H](C)N(C)C(=O)[C@H](CC(=O)O)NC(=O)[C@H]([C@@H](C)c3cccc4ccccc34)NC(=O)[C@@H]3C[C@@H](N)CN3C(=O)CNC(=O)[C@H](Cc3ccc(C(=O)O)cc3)NC(=O)[C@H](Cc3c[nH]c4ccccc34)NC2=O)cc1 [Example 122] (cyclo([AEF](Ac)W[Phe(4-COOH)]G[Pro(4R-NH2)][1Nal(3S-Me)]D[dNMeA]G[Bip(4'-COOH)]WG[dDab][h3Pal(5-CN)]))
2 | 0.432 | CC(=O)NCCOc1ccc(C[C@@H]2NC(=O)[C@H](CCc3ccc(O)cc3)NC(=O)C(C)(C)NC(=O)[C@H](CCCN)NC(=O)[C@H](Cc3c[nH]c4ccccc34)NC(=O)[C@H](Cc3ccc(-c4ccc(C(=O)O)cc4)cc3)NC(=O)CNC(=O)[C@@H](C)N(C)C(=O)[C@H](CC(=O)O)NC(=O)[C@H]([C@@H](C)c3cccc4ccccc34)NC(=O)[C@@H]3C[C@@H](N)CN3C(=O)CNC(=O)[C@H](Cc3ccc(C(=O)O)cc3)NC(=O)[C@H](Cc3c[nH]c4ccccc34)NC2=O)cc1 [Example 127] (cyclo([AEF](Ac)W[Phe(4-COOH)]G[Pro(4R-NH2)][1Nal(3S-Me)]D[dNMeA]G[Bip(4'-COOH)]W[Orn][Aib][hTyr]))
3 | 0.114 | CC(=O)NCCOc1ccc(C[C@@H]2NC(=O)[C@H](CCc3cncc(C#N)c3)NC(=O)C(C)(C)NC(=O)[C@H](CN)NC(=O)[C@H](Cc3cccc4ccccc34)NC(=O)[C@H](Cc3ccc(-c4ccc(C(=O)O)cc4)cc3)NC(=O)CNC(=O)[C@@H](C)N(C)C(=O)[C@H](CC(=O)O)NC(=O)[C@H]([C@@H](C)c3c[nH]c4cccc(Cl)c34)NC(=O)[C@@H]3C[C@@H](N)CN3C(=O)CNC(=O)[C@H](Cc3ccc(C(=O)O)cc3)NC(=O)[C@H](Cc3c[nH]c4ccccc34)NC2=O)cc1 [Example 130] (cyclo([AEF](Ac)W[Phe(4-COOH)]G[Pro(4R-NH2)][Trp(4-Cl)(βS-Me)]D[dNMeA]G[Bip(4'-COOH)][1Nal][Dap][Aib][h3Pal(5-CN)]))

Further lines, the molecule ahead of its results:

Row | Compound | IC50 [nM]
4 | CC(=O)NCCOc1ccc(C[C@@H]2NC(=O)[C@H](CCc3ccc(O)cc3)NC(=O)[C@@H](C)N(C)C(=O)[C@H](CN)NC(=O)[C@H](Cc3c[nH]c4ccccc34)NC(=O)[C@H](Cc3ccc(-c4ccc(C(=O)O)cc4)cc3)NC(=O)CNC(=O)[C@@H](C)N(C)C(=O)[C@H](CC(=O)O)NC(=O)[C@H]([C@@H](C)c3cccc4ccccc34)NC(=O)[C@@H]3C[C@@H](N)CN3C(=O)CNC(=O)[C@H](Cc3ccc(C(=O)O)cc3)NC(=O)[C@H](Cc3c[nH]c4ccccc34)NC2=O)cc1 [Example 121] (cyclo([AEF](Ac)W[Phe(4-COOH)]G[Pro(4R-NH2)][1Nal(3S-Me)]D[dNMeA]G[Bip(4'-COOH)]W[Dap][dNMeA][hTyr])) | 0.085
5 | CC(=O)NCCOc1ccc(C[C@@H]2NC(=O)[C@H](CCc3ccc(O)cc3)NC(=O)[C@@H](CCN)NC(=O)CNC(=O)[C@H](Cc3c[nH]c4ccccc34)NC(=O)[C@H](Cc3ccc(-c4ccc(C(=O)O)cc4)cc3)NC(=O)CNC(=O)[C@@H](C)N(C)C(=O)[C@H](CC(=O)O)NC(=O)[C@H]([C@@H](C)c3cccc4ccccc34)NC(=O)[C@@H]3C[C@@H](N)CN3C(=O)CNC(=O)[C@H](Cc3ccc(C(=O)O)cc3)NC(=O)[C@H](Cc3c[nH]c4ccccc34)NC2=O)cc1 [Example 123] (cyclo([AEF](Ac)W[Phe(4-COOH)]G[Pro(4R-NH2)][1Nal(3S-Me)]D[dNMeA]G[Bip(4'-COOH)]WG[dDab][hTyr])) | 0.0457
6 | CC(=O)NCCOc1ccc(C[C@@H]2NC(=O)[C@H](C)NC(=O)[C@@H](C)NC(=O)[C@H](CC(C)C)NC(=O)[C@H](Cc3c[nH]c4ccccc34)NC(=O)[C@H](Cc3ccc(-c4ccc(C(=O)O)cc4)cc3)NC(=O)CNC(=O)[C@@H](C)N(C)C(=O)[C@H](CC(=O)O)NC(=O)[C@H]([C@@H](C)c3cccc4ccccc34)NC(=O)[C@@H]3C[C@@H](N)CN3C(=O)CNC(=O)[C@H](Cc3ccc(C(=O)O)cc3)NC(=O)[C@H](Cc3c[nH]c4ccccc34)NC2=O)cc1 [Example 124] (cyclo([AEF](Ac)W[Phe(4-COOH)]G[Pro(4R-NH2)][1Nal(3S-Me)]D[dNMeA]G[Bip(4'-COOH)]WL[dA]A)) | 0.636
7 | CC(=O)NCCOc1ccc(C[C@@H]2NC(=O)[C@H](CCc3ccc(O)cc3)NC(=O)[C@@H](C)NC(=O)[C@H](CC(C)C)NC(=O)[C@H](Cc3c[nH]c4ccccc34)NC(=O)[C@H](Cc3ccc(-c4ccc(C(=O)O)cc4)cc3)NC(=O)CNC(=O)[C@@H](C)N(C)C(=O)[C@H](CC(=O)O)NC(=O)[C@H]([C@@H](C)c3cccc4ccccc34)NC(=O)[C@@H]3C[C@@H](N)CN3C(=O)CNC(=O)[C@H](Cc3ccc(C(=O)O)cc3)NC(=O)[C@H](Cc3c[nH]c4ccccc34)NC2=O)cc1 [Example 125] (cyclo([AEF](Ac)W[Phe(4-COOH)]G[Pro(4R-NH2)][1Nal(3S-Me)]D[dNMeA]G[Bip(4'-COOH)]WL[dA][hTyr])) | 0.064
8 | CC(=O)NCCOc1ccc(C[C@@H]2NC(=O)[C@H](CCc3ccc(O)cc3)NC(=O)[C@@H](CCN)NC(=O)[C@H](CC(C)C)NC(=O)[C@H](Cc3c[nH]c4ccccc34)NC(=O)[C@H](Cc3ccc(-c4ccc(C(=O)O)cc4)cc3)NC(=O)CNC(=O)[C@@H](C)N(C)C(=O)[C@H](CC(=O)O)NC(=O)[C@H]([C@@H](C)c3cccc4ccccc34)NC(=O)[C@@H]3C[C@@H](N)CN3C(=O)CNC(=O)[C@H](Cc3ccc(C(=O)O)cc3)NC(=O)[C@H](Cc3c[nH]c4ccccc34)NC2=O)cc1 [Example 126] (cyclo([AEF](Ac)W[Phe(4-COOH)]G[Pro(4R-NH2)][1Nal(3S-Me)]D[dNMeA]G[Bip(4'-COOH)]WL[dDab][hTyr])) | 0.37
9 | CC(=O)NCCOc1ccc(C[C@@H]2NC(=O)[C@H](CCc3ccc(O)cc3)NC(=O)[C@@H](C)NC(=O)[C@H](CO)NC(=O)[C@H](Cc3c[nH]c4ccccc34)NC(=O)[C@H](Cc3ccc(-c4ccc(C(=O)O)cc4)cc3)NC(=O)CNC(=O)[C@@H](C)N(C)C(=O)[C@H](CC(=O)O)NC(=O)[C@H]([C@@H](C)c3cccc4ccccc34)NC(=O)[C@@H]3C[C@@H](N)CN3C(=O)CNC(=O)[C@H](Cc3ccc(C(=O)O)cc3)NC(=O)[C@H](Cc3c[nH]c4ccccc34)NC2=O)cc1 [Example 128] (cyclo([AEF](Ac)W[Phe(4-COOH)]G[Pro(4R-NH2)][1Nal(3S-Me)]D[dNMeA]G[Bip(4'-COOH)]WS[dA][hTyr])) | 0.09
10 | CC(=O)NCCOc1ccc(C[C@@H]2NC(=O)[C@H](CCc3ccc(O)cc3)NC(=O)[C@@H](C)NC(=O)[C@H](CN)NC(=O)[C@H](Cc3c[nH]c4ccccc34)NC(=O)[C@H](Cc3ccc(-c4ccc(C(=O)O)cc4)cc3)NC(=O)CNC(=O)[C@@H](C)N(C)C(=O)[C@H](CC(N)=O)NC(=O)[C@H]([C@@H](C)c3cccc4ccccc34)NC(=O)[C@@H]3C[C@@H](N)CN3C(=O)CNC(=O)[C@H](Cc3ccc(C(=O)O)cc3)NC(=O)[C@H](Cc3c[nH]c4ccccc34)NC2=O)cc1 [Example 129] (cyclo([AEF](Ac)W[Phe(4-COOH)]G[Pro(4R-NH2)][1Nal(3S-Me)]N[dNMeA]G[Bip(4'-COOH)]W[Dap][dA][hTyr])) | 0.0828

Reference: US20230406885A1, “CYCLIC PEPTIDES FOR TRAPPING INTERLEUKIN-1 BETA” (MERCK SHARP & DOHME LLC, priority 2022, published 2023)
